Test results: patent publication US20250144067A1, “PERSONALIZED STARVATION THERAPY FOR CANCER” (Faeth Therapeutics, Inc., priority 2021, published 2025)
Where a name gives a salt, the structure may show the parent alone. Read-outs that look alike come from different tables or passages of the source.

How the values were obtained:
[1] = system: NCI-H292 lung cancer cells; assay: FDA drug screening, complete media vs cholesterol-free media with simvastatin (TABLE 2); type: cell-based, human
[2] = system: NCI-H292 lung cancer cells; assay: FDA drug screening, complete media vs cholesterol-free media without statin (TABLE 1); type: cell-based, human
[3] = NCI-H292 cells, drug in cholesterol-free media with simvastatin 0.04 μM
[4] = NCI-H292 cells, drug in complete media
[5] = complete media vs cholesterol-free media + simvastatin (0.04 μM), >0 enhanced anti-cancer activity, about 0 neutral, <0 antagonist
[6] = Complete minus Cholesterol-free, >0 enhanced anti-cancer activity, about 0 neutral, <0 antagonist
[7] = NCI-H292 cells, cholesterol-free media without statin
[8] = NCI-H292 cells, cholesterol-free media with simvastatin 0.04 μM, FDA drug library screen (TABLE 2)
[9] = NCI-H292 cells, complete media, FDA drug library screen (TABLE 2)
[10] = complete media minus cholesterol-free media + simvastatin (0.04 μM), >0 enhanced anti-cancer activity, about 0 neutral, <0 antagonist
[11] = NCI-H292 cells, FDA drug library screen, cholesterol-free media with simvastatin 0.04 μM
[12] = NCI-H292 cells, FDA drug library screen, complete media
[13] = Complete minus Cholesterol-free, greater than 0 enhanced anti-cancer activity, about 0 neutral, below 0 antagonists
[14] = NCI-H292 cells in cholesterol-free media without statin
[15] = NCI-H292 cells in complete media
[16] = NCI-H292 cells, FDA library drug in cholesterol-free media with simvastatin 0.04 μM
[17] = NCI-H292 cells, FDA library drug in complete media
[18] = NCI-H292 cells, cholesterol-free media without statin, FDA drug library screen
[19] = NCI-H292 cells, complete media, FDA drug library screen
[20] = complete vs cholesterol-free media, >0 enhanced anti-cancer activity, about 0 neutral, <0 antagonist
[21] = NCI-H292 cells, cholesterol-free media with simvastatin 0.04 μM, cell growth value in FDA drug screen
[22] = NCI-H292 cells, complete media, cell growth value in FDA drug screen
[23] = complete media minus cholesterol-free media + simvastatin, >0 enhanced anti-cancer activity, about 0 neutral, <0 antagonist
[24] = Complete minus Cholesterol-free, greater than 0 enhanced anti-cancer activity, about 0 neutral, below 0 antagonist
[25] = NCI-H292 cells, FDA drug library screen, cholesterol-free media without statin

Tofacitinib (citrate)
Cholesterol-free media + simvastatin (0.04 μM) [1, 3]: 0.9122
Complete Media [1, 4]: 0.6806
Difference [1, 5]: −0.23
Difference [2, 6]: −0.26
Cholesterol-free [2, 7]: 0.8106
Complete ([2]; NCI-H292 cells, complete media): 0.5473

Clebopride (malate)
Cholesterol-free media + simvastatin (0.04 μM) [1, 8]: 0.7532
Complete Media [1, 9]: 0.7281
Difference [1, 10]: −0.03
Difference [2, 6]: −0.29
Cholesterol-free [2, 7]: 0.9703
Complete ([2]; NCI-H292 cells, complete media): 0.6807

CN(CC(=O)O)C(=N)N [Creatine]
Cholesterol-free media + simvastatin (0.04 μM) [1, 11]: 1.925
Complete Media [1, 12]: 1.831
Difference [1, 5]: −0.09
Difference [2, 13]: −0.96
Cholesterol-free [2, 14]: 2.303
Complete [2, 15]: 1.348

O=C(CCBr)N1CCN(C(=O)CCBr)CC1 [Pipobroman]
Cholesterol-free media + simvastatin (0.04 μM) [1, 16]: 1.384
Complete Media [1, 17]: 1.051
Difference [1, 5]: −0.33
Difference [2, 6]: −0.30
Cholesterol-free [2, 7]: 1.38
Complete ([2]; NCI-H292 cells, complete media): 1.078

Cn1c(=O)c2c(ncn2CC(=O)O)n(C)c1=O [Acefylline]
Cholesterol-free media + simvastatin (0.04 μM) [1, 8]: 1.078
Complete Media [1, 9]: 1.058
Difference [1, 10]: −0.02
Difference [2, 6]: −0.31
Cholesterol-free [2, 7]: 1.455

Potassium guaiacolsulfonate (hemihydrate)
Cholesterol-free media + simvastatin (0.04 μM) [1]: 1.702
Complete Media [1]: 1.838
Difference [1]: 0.14
Cholesterol-free [2]: 1.74
Complete [2]: 0.9478
Difference [2]: −0.79

CCCC1O[C@@H]2C[C@H]3[C@@H]4CCC5=CC(=O)C=C[C@]5(C)[C@H]4[C@@H](O)C[C@]3(C)[C@]2(C(=O)CO)O1 (stereo partly shown) [Budesonide]
Cholesterol-free media + simvastatin (0.04 μM) [1, 16]: 1.254
Complete Media [1, 17]: 0.6405
Difference [1, 5]: −0.61
Cholesterol-free [2, 18]: 0.6924
Complete [2, 19]: 1.034
Difference [2, 20]: 0.34

CC12CC3CC(C)(C1)CC(N)(C3)C2 [Memantine (hydrochloride)]
Cholesterol-free media + simvastatin (0.04 μM) [1, 21]: 0.8007
Complete Media [1, 22]: 0.853
Difference [1, 23]: 0.05
Difference [2, 24]: −0.14
Cholesterol-free [2, 25]: 0.8008
Complete [2, 12]: 0.656

CCOC(=O)c1ccc(O)cc1 [Ethylparaben]
Cholesterol-free media + simvastatin (0.04 μM) [1, 11]: 1.326
Complete Media [1, 12]: 1.517
Difference [1, 23]: 0.19
Cholesterol-free [2, 18]: 1.065
Complete [2, 19]: 1.563
Difference [2, 20]: 0.50

Chloroquine (phosphate)
Cholesterol-free media + simvastatin (0.04 μM) [1]: 1.286
Complete Media [1]: 0.98
Difference [1]: −0.31
Cholesterol-free [2]: 1.557
Complete [2]: 0.9171
Difference [2]: −0.64

O=C1NC(=O)C(c2ccccc2)(c2ccccc2)N1 [Phenytoin (sodium)]
Cholesterol-free media + simvastatin (0.04 μM) [1, 8]: 0.8893
Complete Media [1, 9]: 0.8884
Difference [1, 10]: 0.00
Difference [2, 6]: −0.27
Cholesterol-free [2, 7]: 1.197
Complete ([2]; NCI-H292 cells, complete media): 0.9283

CCCCCCCCCC(=O)N[C@@H](Cc1c[nH]c2ccccc12)C(=O)N[C@H](CC(N)=O)C(=O)N[C@@H](CC(=O)O)C(=O)N[C@@H]1C(=O)NCC(=O)N[C@@H](CCCN)C(=O)N[C@@H](CC(=O)O)C(=O)N[C@H](C)C(=O)N[C@@H](CC(=O)O)C(=O)NCC(=O)N[C@H](CO)C(=O)N[C@@H]([C@H](C)CC(=O)O)C(=O)N[C@@H](CC(=O)c2ccccc2N)C(=O)O[C@@H]1C [Daptomycin]
Cholesterol-free media + simvastatin (0.04 μM) [1, 11]: 1.147
Complete Media [1, 12]: 1.33
Difference ([1]; complete media minus cholesterol-free media + simvastatin, […]): 0.18
Cholesterol-free [2, 7]: 1.025
Complete ([2]; NCI-H292 cells, complete media): 0.6476
Difference ([2]; complete vs cholesterol-free media, […]): −0.38

NC(=O)N/N=C/c1ccc([N+](=O)[O-])o1 [Nitrofurazone]
Cholesterol-free media + simvastatin (0.04 μM) [1, 16]: 1.854
Difference [1, 5]: −0.70
Cholesterol-free [2, 18]: 1.281
Complete [2, 19]: 1.416
Difference [2, 20]: 0.13

CCCc1nn(C)c2c(=O)[nH]c(-c3cc(S(=O)(=O)N4CCN(C)CC4)ccc3OCC)nc12 [Sildenafil]
Cholesterol-free media + simvastatin (0.04 μM) [1, 11]: 1.23
Complete Media [1, 12]: 1.131
Difference [1, 5]: −0.10
Difference [2, 13]: −0.63
Cholesterol-free [2, 14]: 1.66
Complete [2, 15]: 1.034

CC(C(=O)O)c1ccc(CC2CCCC2=O)cc1 (stereo not shown) [Loxoprofen]
Cholesterol-free media + simvastatin (0.04 μM) [1, 21]: 0.9936
Complete Media [1, 22]: 1.115
Difference [1, 23]: 0.12
Difference [2, 13]: −0.88
Cholesterol-free [2, 14]: 1.914
Complete [2, 15]: 1.039

CCN(CC)C(=O)c1cccc(C)c1 [Diethyltoluamide]
Cholesterol-free media + simvastatin (0.04 μM) [1, 3]: 1.302
Complete Media [1, 4]: 1.098
Difference [1, 5]: −0.20
Difference [2, 24]: −0.08
Cholesterol-free [2, 25]: 1.096
Complete [2, 12]: 1.015

CN(C)CCCN1c2ccccc2CCc2ccc(Cl)cc21 [Clomipramine (hydrochloride)]
Cholesterol-free media + simvastatin (0.04 μM) [1, 21]: 0.9105
Complete Media [1, 22]: 1.028
Difference [1, 23]: 0.12
Difference [2, 13]: −0.54
Cholesterol-free [2, 14]: 1.47
Complete [2, 15]: 0.9281

c1ccc(CC2=NCCN2)cc1 [Tolazoline (hydrochloride)]
Cholesterol-free media + simvastatin (0.04 μM) [1, 3]: 1.363
Complete Media [1, 4]: 1.126
Difference [1, 5]: −0.24
Difference [2, 6]: −0.25
Cholesterol-free [2, 7]: 1.249
Complete ([2]; NCI-H292 cells, complete media): 0.9982

CCN(CC)CC#CCOC(=O)C(O)(c1ccccc1)C1CCCCC1 (stereo not shown) [Oxybutynin (chloride)]
Cholesterol-free media + simvastatin (0.04 μM) [1, 3]: 1.236
Complete Media [1, 4]: 1.034
Difference [1, 5]: −0.20
Cholesterol-free [2, 7]: 1.171
Complete ([2]; NCI-H292 cells, complete media): 0.8317
Difference ([2]; complete vs cholesterol-free media, greater than 0 enhanced anti-cancer activity, about 0 neutral, below 0 antagonists): −0.34

CN(C)N(C)C(=O)[C@@]1(Cc2ccccc2)CCCN(C(=O)[C@@H](Cc2c[nH]c3ccccc23)NC(=O)C(C)(C)N)C1 [Anamorelin (hydrochloride)]
Cholesterol-free media + simvastatin (0.04 μM) [1, 8]: 1.088
Complete Media [1, 9]: 1.064
Difference [1, 10]: −0.02
Difference [2, 13]: −0.93
Cholesterol-free [2, 14]: 1.922
Complete [2, 15]: 0.9877

CC(C(=O)O)c1cccc(Oc2ccccc2)c1 (stereo not shown) [Fenoprofen (Calcium hydrate)]
Cholesterol-free media + simvastatin (0.04 μM) [1, 3]: 1.224
Complete Media [1, 4]: 1.032
Difference [1, 5]: −0.19
Difference [2, 6]: −0.23
Cholesterol-free [2, 7]: 1.081
Complete ([2]; NCI-H292 cells, complete media): 0.8539

O=C(O)c1cccnc1Nc1cccc(C(F)(F)F)c1 [Niflumic acid]
Cholesterol-free media + simvastatin (0.04 μM) [1, 16]: 0.9955
Complete Media [1, 17]: 0.2879
Difference [1, 5]: −0.71
Cholesterol-free [2, 18]: 0.872
Complete [2, 19]: 1.486
Difference [2, 20]: 0.61

Ribociclib succinate hydrate
Cholesterol-free media + simvastatin (0.04 μM) [1, 21]: 0.4954
Complete Media [1, 22]: 0.6321
Difference [1, 23]: 0.14
Difference [2, 6]: −0.21
Cholesterol-free [2, 7]: 0.9345
Complete ([2]; NCI-H292 cells, complete media): 0.7226
